The values that follow come from patent US20100168079A1 (priority 2008, published 2010).

The target in this experiment is T1, human S1P1 receptors (Homo sapiens, UniProt P21453).
T1 construct: myc (N); expressed in transfected cells; host or cells: HeLa (human cervix carcinoma, ATCC CCL2), HeLa-S1P1/Gα16 cell clone 1
T1 sequence (P21453 whole entry): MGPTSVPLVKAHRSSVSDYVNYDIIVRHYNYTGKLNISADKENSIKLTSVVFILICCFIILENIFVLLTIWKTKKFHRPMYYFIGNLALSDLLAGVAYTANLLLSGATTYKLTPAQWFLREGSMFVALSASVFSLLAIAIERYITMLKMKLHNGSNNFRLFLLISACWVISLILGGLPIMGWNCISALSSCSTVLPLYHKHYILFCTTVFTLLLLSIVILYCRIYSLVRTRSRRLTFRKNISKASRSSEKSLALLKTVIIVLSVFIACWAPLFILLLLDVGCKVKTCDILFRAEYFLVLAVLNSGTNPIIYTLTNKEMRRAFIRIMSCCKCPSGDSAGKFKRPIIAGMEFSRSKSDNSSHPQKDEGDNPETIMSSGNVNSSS
Description: Human S1P1 Receptor Calcium FLIPR Antagonist Assay (HeLa Gα16 S1P1). The experiment is classed as cell-based. Conditions: relative antagonism of Ca2+ signal evoked by probing agonist GNF-AC-1 at EC80; HeLa-S1P1/Gα16 cells. The protocol:
Human S1P1 Receptor Calcium FLIPR Antagonist Assay
The cells are plated in 384 well black plates (10′000 cells per well). […] After washing, the cells are transferred to the FLIPR. The test compounds are added at different concentrations […]) in HBSS in the presence of 0.1% BSA and changes in fluorescence are recorded (indication of agonism). The probing agonist is added 20-30 minutes afterwards to the wells at a concentration giving 80% of the maximal activity (EC80). After each addition, time points are collected as follows: 20 time points (2 seconds) before the addition of the agonist (Fmin) and 60 time points (1 or 2 seconds) after the addition of the probing agonist. This allows the determination of the maximal fluorescence (Fmax). The ratio (Fmax-Fmin)/Fmin is plotted against the log of the concentration of the test compounds and the IC50 (relative antagonism) is calculated using the XLfit-4 software. […] A concentration-response curve of the probing agonist is determined on each plate in parallel.
Usually IC50 stands for the concentration that gives 50% inhibition. On to `Cc1cc(C(Nc2cccc(-c3cc(C)c(C(=O)N[C@@H](C)C(=O)O)c(C)c3)c2)C(C)C)ccc1Cl` (stereo partly drawn) [Example 90, (S)-2-({3′-[1-(4-Chloro-3-methyl-phenyl)-2-methyl-propylamino]-3,5-dimethyl-biphenyl-4-carbonyl}-amino)-propionic acid], for which the IC50 was 10 nM.
In the case of `Cc1cc(C(Nc2cccc(-c3ccc(C(=O)N(C)[C@@H](C)C(=O)O)c(C(F)(F)F)c3)c2)C(F)(F)F)ccc1Cl` (stereo partly drawn) [Example 91, (S)-2-({3′-[1-(4-Chloro-3-methyl-phenyl)-2,2,2-trifluoro-ethylamino]-3-trifluoromethyl-biphenyl-4-carbonyl}-methyl-amino)-propionic acid], the IC50 worked out at 4 nM.
Take `Cc1cc(C(Nc2cccc(-c3ccc(C(=O)N[C@@H](C)C(=O)O)c(C(F)(F)F)c3)c2)C(F)(F)F)ccc1Cl` (stereo partly drawn) [Example 92, (S)-2-({3′-[1-(4-Chloro-3-methyl-phenyl)-2,2,2-trifluoro-ethylamino]-3-trifluoromethyl-biphenyl-4-carbonyl}-amino)-propionic acid]: the IC50 is 4 nM.
Consider `Cc1cc(C(Nc2cccc(-c3ccc(C(=O)N(C)C4(C(=O)O)CC4)c(C(F)(F)F)c3)c2)C(F)(F)F)ccc1Cl` (stereo not drawn) [Example 93, 1-({3′-[1-(4-Chloro-3-methyl-phenyl)-2,2,2-trifluoro-ethylamino]-3-trifluoromethyl-biphenyl-4-carbonyl}-methyl-amino)-cyclopropanecarboxylic acid], for which the IC50 was found to be 4 nM.
To `Cc1cc(C(Nc2cccc(-c3ccc(C(=O)N[C@@H](C)C(=O)O)c(Cl)c3)c2)C(F)(F)F)ccc1Cl` (stereo partly drawn) [Example 94] belongs 14 nM; to `Cc1cc(C(Nc2cccc(-c3ccc(C(=O)NC4(C(=O)O)CC4)c(Cl)c3)c2)C(F)(F)F)ccc1Cl` (stereo not drawn) [Example 95, 1-({3-Chloro-3′-[1-(4-chloro-3-methyl-phenyl)-2,2,2-trifluoro-ethylamino]-biphenyl-4-carbonyl}-amino)-cyclopropanecarboxylic acid], 14 nM; to `Cc1cc([C@H](Nc2cccc(-c3ccc(C(=O)N(C)[C@@H](C)C(=O)O)c(Cl)c3)c2)C(F)(F)F)ccc1Cl` [Example 96, (S)-2-({3-Chloro-3′-[(S)-1-(4-chloro-3-methyl-phenyl)-2,2,2-trifluoro-ethylamino]-biphenyl-4-carbonyl}-methyl-amino)-propionic acid], 2 nM.
Take `Cc1cc(C(C)(C)Nc2cccc(-c3ccc(C(=O)N[C@@H](C)C(=O)O)c(Cl)c3)c2)ccc1Cl` [Example 97, (S)-2-({3-Chloro-3′-[1-(4-chloro-3-methyl-phenyl)-1-methyl-ethylamino]-biphenyl-4-carbonyl}-amino)-propionic acid]: the IC50 was 1 nM.
As for `Cc1cc(C(C)(C)Nc2cccc(-c3ccc(C(=O)N(C)[C@@H](C)C(=O)O)c(Cl)c3)c2)ccc1Cl` [Example 98, (S)-2-({3-Chloro-3′-[1-(4-chloro-3-methyl-phenyl)-1-methyl-ethylamino]-biphenyl-4-carbonyl}-methyl-amino)-propionic acid], the IC50 is 4 nM.
In the case of `CC[C@@H](Nc1cccc(-c2cc(C)c(C(=O)N[C@@H](C)C(=O)O)c(C)c2)c1)c1cc(C)c(Cl)c(C)c1` [Example 101, (S)-2-({3′-[(R)-1-(4-Chloro-3,5-dimethyl-phenyl)-propylamino]-3,5-dimethyl-biphenyl-4-carbonyl}-amino)-propionic acid], the IC50 stood at 1 nM.
`CC[C@@H](Nc1cccc(-c2cc(C)c(C(=O)NC3(C(=O)O)CC3)c(C)c2)c1)c1cc(C)c(Cl)c(C)c1` [Example 102, 1-({3-[(R)-1-(4-Chloro-3,5-dimethyl-phenyl)-propylamino]-3,5-dimethyl-biphenyl-4-carbonyl}-amino)-cyclopropanecarboxylic acid]: the IC50 is 1 nM.
With `CC[C@H](c1ccc(Cl)c(C)c1)N(C)c1cccc(-c2cc(C)c(C(=O)N[C@@H](C)C(=O)O)c(C)c2)c1` [Example 104, (S)-2-[(3′-{[(R)-1-(4-Chloro-3-methyl-phenyl)-propyl]-methyl-amino}-3,5-dimethyl-biphenyl-4-carbonyl)-amino]-propionic acid], the IC50 was 1 nM.
In the case of `CC[C@@H](Nc1cccc(-c2cc(C)c(C(=O)N(C)[C@@H](C)C(=O)O)c(C)c2)c1)c1ccc(Cl)c(C)c1` [Example 107, (S)-2-({3′-[(R)-1-(4-Chloro-3-methyl-phenyl)-propylamino]-3,5-dimethyl-biphenyl-4-carbonyl}-methyl-amino)-propionic acid], the IC50 stood at 1 nM.
To `CC[C@H](c1ccc(Cl)c(C)c1)N(C)c1cccc(-c2cc(C)c(C(=O)N(C)C3(C(=O)O)CC3)c(C)c2)c1` [Example 110, 1-[(3′-{[(R)-1-(4-Chloro-3-methyl-phenyl)-propyl]-methyl-amino}-3,5-dimethyl-biphenyl-4-carbonyl)-methyl-amino]-cyclopropanecarboxylic acid] belongs 35 nM; to `CC[C@@H](Nc1cccc(-c2cc(C)c(C(=O)N(C)C3(C(=O)O)CC3)c(C)c2)c1)c1ccc(Cl)c(C)c1` [Example 111, 1-({3′-[(R)-1-(4-Chloro-3-methyl-phenyl)-propylamino]-3,5-dimethyl-biphenyl-4-carbonyl}-methyl-amino)-cyclopropanecarboxylic acid], 8 nM; to `Cc1cc([C@@H](C)Nc2cccc(-c3cc(C)c(C(=O)N[C@@H](CN)C(=O)O)c(C)c3)c2)ccc1Cl` [Example 114, (S)-3-Amino-2-({3′-[(R)-1-(4-chloro-3-methyl-phenyl)-ethylamino]-3,5-dimethyl-biphenyl-4-carbonyl}-amino)-propionic acid], 1 nM.
As for `CC[C@H](c1ccc(Cl)c(C)c1)N(C)c1ccc(F)c(-c2cc(C)c(C(=O)N[C@@H](C)C(=O)O)c(C)c2)c1` [Example 116, (S)-2-[(5′-{[(R)-1-(4-Chloro-3-methyl-phenyl)-propyl]-methyl-amino}-2′-fluoro-3,5-dimethyl-biphenyl-4-carbonyl)-amino]-propionic acid], the IC50 was 2 nM.
As to `CC[C@H](c1ccc(Cl)c(C)c1)N(C)c1ccc(F)c(-c2cc(C)c(C(=O)N(C)[C@@H](C)C(=O)O)c(C)c2)c1` [Example 118, (S)-2-[(5′-{[(R)-1-(4-Chloro-3-methyl-phenyl)-propyl]-methyl-amino}-2′-fluoro-3,5-dimethyl-biphenyl-4-carbonyl)-methyl-amino]-propionic acid], the half-inhibitory concentration (IC50) turned out to be 4 nM.
